Test results reported in patent US11180462B2, “Microbiocidal oxadiazole derivatives” (SYNGENTA PARTICIPATIONS AG, priority 2015, dated 2021).

Assays:
[1] = system: Puccinia recondita f. Sp. Tritici; assay: Fungicidal activity against Puccinia recondita f. sp. tritici / wheat / leaf disc curative (brown rust); format: in vivo; details: foliar, 24 h, 200 ppm in the applied formulation, wheat leaf segments, curative (applied 1 day after inoculation), compared to untreated control leaf disks, read-out: disease control
Method in brief: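 Inoculate cv. Kanzler segments on agar; hold dark, 19° C, 75% RH. Spray diluted formulated compound at day 1. Incubate 12 h light/12 h dark, same temperature and humidity; score % control vs untreated 6–8 days later.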

[2] = system: Glomerella lagenarium (Colletotrichum lagenarium); assay: Fungicidal activity against Glomerella lagenarium (Colletotrichum lagenarium) liquid culture / cucumber / preventative (anthracnose); format: cell-based; details: Colletotrichum orbiculare; 20 ppm in the applied formulation; liquid culture (PDB), growth inhibition measured photometrically after 3 to 4 days; compared to untreated control; read-out: disease control
Method in brief: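 Photometric read-out of fungal growth after 2–7 days, expressed as percent antifungal activity versus untreated check. Cryo-stored conidia in PDB; compound at 20 ppm; dark, 24 °C, 96% RH.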

Phakopsora Pachyrhizi = assay: Fungicidal activity against Phakopsora pachyrhizi / soybean / leaf disc preventative (Asian soybean rust); format: in vivo; details: foliar, 200 ppm in the applied formulation, soybean leaf disks, compared to untreated control leaf disks, read-out: disease control
Method in brief: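 Preventative soybean leaf-disc test: discs on water agar sprayed with diluted formulated compound, inoculated one day later with spores on the lower surface. Held 24–36 h dark at 20°C, 75% rh, then 12 h light/day; percent disease control versus untreated discs scored 12–14 days after application.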

[3] = system: Puccinia recondita f. Sp. Tritici; assay: Fungicidal activity against Puccinia recondita f. sp. tritici / wheat / leaf disc preventative (brown rust); format: in vivo; details: foliar, 200 ppm in the applied formulation, wheat leaf segments, preventative, compared to untreated control leaf disks, read-out: disease control
Method in brief: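 Preventative leaf-segment test, wheat cv. Kanzler on water agar. Spray compound at 200 ppm, inoculate with spores 1 day later; 19° C., 75% rh, 12/12 h light. Read-out: % disease control vs untreated, 7 to 9 days after application.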

CCC(COC)C(=O)N(Cc1ccc(-c2noc(C(F)(F)F)n2)cc1)OC (centres unmarked) [Compound 1.57, N-methoxy-2-(methoxymethyl)-N-[[4-[5-(trifluoromethyl)-1,2,4-oxadiazol-3-yl]phenyl]methyl]-butanamide]
≥ 80%: pest or weed control at 200 ppm [1] | inhibition of growth at 20 ppm [2] | pest or weed control at 200 ppm (Phakopsora Pachyrhizi) | pest or weed control at 200 ppm [3]

CCON(Cc1ccc(-c2noc(C(F)(F)F)n2)cc1)C(=O)C(C)CC (centres unmarked) [Compound 1.622, N-ethoxy-2-methyl-N-[[4-[5-(trifluoromethyl)-1,2,4-oxadiazol-3-yl]phenyl]methyl]-butanamide]
≥ 80%: pest or weed control at 200 ppm [1] | inhibition of growth at 20 ppm [2] | pest or weed control at 200 ppm (Phakopsora Pachyrhizi) | pest or weed control at 200 ppm [3]

CCCN(Cc1ccc(-c2noc(C(F)(F)F)n2)cc1)C(=O)C(C)C [Compound 1.651, 2-methyl-N-propyl-N-[[4-[5-(trifluoromethyl)-1,2,4-oxadiazol-3-yl]phenyl]methyl]-propanamide]
≥ 80%: pest or weed control at 200 ppm [1] | inhibition of growth at 20 ppm [2] | pest or weed control at 200 ppm (Phakopsora Pachyrhizi) | pest or weed control at 200 ppm [3]

COCCC(=O)N(Cc1ccc(-c2noc(C(F)(F)F)n2)cc1)OC [Compound 1.31, N,3-dimethoxy-N-[[4-[5-(trifluoromethyl)-1,2,4-oxadiazol-3-yl]phenyl]methyl]-propanamide]
≥ 80%: pest or weed control at 200 ppm [1] | inhibition of growth at 20 ppm [2] | pest or weed control at 200 ppm (Phakopsora Pachyrhizi) | pest or weed control at 200 ppm [3]

CCN(Cc1ccc(-c2noc(C(F)(F)F)n2)cc1)C(=O)NC [Compound 3.52, 1-ethyl-3-methyl-1-[[4-[5-(trifluoromethyl)-1,2,4-oxadiazol-3-yl]phenyl]methyl]urea]
≥ 80%: pest or weed control at 200 ppm [1] | inhibition of growth at 20 ppm [2] | pest or weed control at 200 ppm (Phakopsora Pachyrhizi) | pest or weed control at 200 ppm [3]

O=C(C1CSC1)N(Cc1ccc(-c2noc(C(F)(F)F)n2)cc1)CC1CC1 [Compound 1.216, N-(cyclopropylmethyl)-N-[[4-[5-(trifluoromethyl)-1,2,4-oxadiazol-3-yl]phenyl]methyl]-thietane-3-carboxamide]
≥ 80%: pest or weed control at 200 ppm [1] | inhibition of growth at 20 ppm [2] | pest or weed control at 200 ppm (Phakopsora Pachyrhizi) | pest or weed control at 200 ppm [3]

COCC(=O)N(Cc1ccc(-c2noc(C(F)(F)F)n2)cc1)C(C)C [Compound 1.600, N-isopropyl-2-methoxy-N-[[4-[5-(trifluoromethyl)-1,2,4-oxadiazol-3-yl]phenyl]methyl]-acetamide]
≥ 80%: pest or weed control at 200 ppm [1] | inhibition of growth at 20 ppm [2] | pest or weed control at 200 ppm (Phakopsora Pachyrhizi) | pest or weed control at 200 ppm [3]

C#CCN(Cc1ccc(-c2noc(C(F)(F)F)n2)cc1)C(=O)CCCOC [Compound 1.196, 4-methoxy-N-prop-2-ynyl-N-[[4-[5-(trifluoromethyl)-1,2,4-oxadiazol-3-yl]phenyl]methyl]-butanamide]
≥ 80%: pest or weed control at 200 ppm [1] | inhibition of growth at 20 ppm [2] | pest or weed control at 200 ppm (Phakopsora Pachyrhizi) | pest or weed control at 200 ppm [3]

CON(Cc1ccc(-c2noc(C(F)(F)F)n2)cn1)C(=O)C1CCCO1 (centres unmarked) [Compound 1.569, N-methoxy-N-[[5-[5-(trifiuoromethyl)-1,2,4-oxadiazol-3-yl]-2-pyridyl]methyl]-tetrahydrofuran-2-carboxamide]
≥ 80%: pest or weed control at 200 ppm [1] | inhibition of growth at 20 ppm [2] | pest or weed control at 200 ppm (Phakopsora Pachyrhizi) | pest or weed control at 200 ppm [3]

CCON(Cc1ccc(-c2noc(C(F)(F)F)n2)cc1)C(=O)C1CCCO1 (centres unmarked) [Compound 1.626, N-ethoxy-N-[[4-[5-(trifluoromethyl)-1,2,4-oxadiazol-3-yl]phenyl]methyl]-tetrahydrofuran-2-carboxamide]
≥ 80%: pest or weed control at 200 ppm [1] | inhibition of growth at 20 ppm [2] | pest or weed control at 200 ppm (Phakopsora Pachyrhizi) | pest or weed control at 200 ppm [3]

CCCN(Cc1ccc(-c2noc(C(F)(F)F)n2)cc1)C(=O)N(C)OC [Compound 3.30, 1-methoxy-1-methyl-3-propyl-3-[[4-[5-(trifluoromethyl)-1,2,4-oxadiazol-3-yl]phenyl]methyl]urea]
≥ 80%: pest or weed control at 200 ppm [1] | inhibition of growth at 20 ppm [2] | pest or weed control at 200 ppm (Phakopsora Pachyrhizi) | pest or weed control at 200 ppm [3]

N#CCC(=O)N(O)Cc1ccc(-c2noc(C(F)(F)F)n2)cc1 [Compound 1.771, 2-cyano-N-hydroxy-N-[[4-[5-(trifluoromethyl)-1,2,4-oxadiazol-3-yl]phenyl]methyl]-acetamide]
≥ 80%: pest or weed control at 200 ppm [1] | inhibition of growth at 20 ppm [2] | pest or weed control at 200 ppm (Phakopsora Pachyrhizi) | pest or weed control at 200 ppm [3]

CCC(C)C(=O)N(Cc1ccc(-c2noc(C(F)(F)F)n2)cc1)Cc1ccco1 (centres unmarked) [Compound 1.466]
≥ 80%: pest or weed control at 200 ppm [1] | inhibition of growth at 20 ppm [2] | pest or weed control at 200 ppm (Phakopsora Pachyrhizi) | pest or weed control at 200 ppm [3]

CC1CC1C(=O)N(O)Cc1ccc(-c2noc(C(F)(F)F)n2)cc1 (centres unmarked) [Compound 1.763, N-hydroxy-2-methyl-N-[[4-[5-(trifluoromethyl)-1,2,4-oxadiazol-3-yl]phenyl]methyl]-cyclopropane-carboxamide]
≥ 80%: pest or weed control at 200 ppm [1] | inhibition of growth at 20 ppm [2] | pest or weed control at 200 ppm (Phakopsora Pachyrhizi) | pest or weed control at 200 ppm [3]

C#CCN(Cc1ccc(-c2noc(C(F)(F)F)n2)cc1)C(=O)C1CCOC1 (centres unmarked) [Compound 1.171, N-prop-2-ynyl-N-[[4-[5-(trifluoromethyl)-1,2,4-oxadiazol-3-yl]phenyl]methyl]-tetrahydrofuran-3-carboxamide]
≥ 80%: pest or weed control at 200 ppm [1] | inhibition of growth at 20 ppm [2] | pest or weed control at 200 ppm (Phakopsora Pachyrhizi) | pest or weed control at 200 ppm [3]

CC(C)C(=O)N(Cc1ccc(-c2noc(C(F)(F)F)n2)cc1)C(C)C [Compound 1.670, N-isopropyl-2-methyl-N-[[4-[5-(trifluoromethyl)-1,2,4-oxadiazol-3-yl]phenyl]methyl]-propanamide]
≥ 80%: pest or weed control at 200 ppm [1] | inhibition of growth at 20 ppm [2] | pest or weed control at 200 ppm (Phakopsora Pachyrhizi) | pest or weed control at 200 ppm [3]

CCC(=O)N(Cc1ccc(-c2noc(C(F)(F)F)n2)cc1)C1CC1 [Compound 1.119, N-cyclopropyl-N-[[4-[5-(trifluoromethyl)-1,2,4-oxadiazol-3-yl]phenyl]methyl]-propanamide]
≥ 80%: pest or weed control at 200 ppm [1] | inhibition of growth at 20 ppm [2] | pest or weed control at 200 ppm (Phakopsora Pachyrhizi) | pest or weed control at 200 ppm [3]

CCC(C)C(=O)N(CC)Cc1ccc(-c2noc(C(F)(F)F)n2)cc1 (centres unmarked) [Compound 1.506, N-ethyl-2-methyl-N-[[4-[5-(trifluoromethyl)-1,2,4-oxadiazol-3-yl]phenyl]methyl]-butanamide]
≥ 80%: pest or weed control at 200 ppm [1] | inhibition of growth at 20 ppm [2] | pest or weed control at 200 ppm (Phakopsora Pachyrhizi) | pest or weed control at 200 ppm [3]

CC1(C(=O)N(O)Cc2ccc(-c3noc(C(F)(F)F)n3)cc2)COC1 [Compound 1.766, N-hyd roxy-3-methyl-N-[[4-[5-(trifluoromethyl)-1,2,4-oxadiazol-3-yl]phenyl]methyl]-oxetane-3-c arboxamide]
≥ 80%: pest or weed control at 200 ppm [1] | inhibition of growth at 20 ppm [2] | pest or weed control at 200 ppm (Phakopsora Pachyrhizi) | pest or weed control at 200 ppm [3]

N#CC1(C(=O)N(Cc2ccc(-c3noc(C(F)(F)F)n3)cc2)C2COC2)CC1 [Compound 1.749, 1-cyano-N-(oxetan-3-yl)-N-[[4-[5-(trifluoromethyl)-1,2,4-oxadiazol-3-yl]phenyl]methyl]-cyclopropane-carboxamide]
≥ 80%: pest or weed control at 200 ppm [1] | inhibition of growth at 20 ppm [2] | pest or weed control at 200 ppm (Phakopsora Pachyrhizi) | pest or weed control at 200 ppm [3]

COC(C)C(=O)N(Cc1ccc(-c2noc(C(F)(F)F)n2)cc1)CC(F)(F)F (centres unmarked) [Compound 1.703, 2-methoxy-N-(2,2,2-trifluoroethyl)-N-[[4-[5-(trifluoromethyl)-1,2,4-oxadiazol-3-yl]phenyl]methyl]-propanamide]
≥ 80%: pest or weed control at 200 ppm [1] | inhibition of growth at 20 ppm [2] | pest or weed control at 200 ppm (Phakopsora Pachyrhizi) | pest or weed control at 200 ppm [3]

CON(Cc1ccc(-c2noc(C(F)(F)F)n2)cc1)C(=O)CC(F)(F)F [Compound 1.36, 3,3,3-trifluoro-N-methoxy-N-[[4-[5-(trifluoromethyl)-1,2,4-oxadiazol-3-yl]phenyl]methyl]-propanamide]
≥ 80%: pest or weed control at 200 ppm [1] | inhibition of growth at 20 ppm [2] | pest or weed control at 200 ppm (Phakopsora Pachyrhizi) | pest or weed control at 200 ppm [3]

COCCCC(=O)N(Cc1ccc(-c2noc(C(F)(F)F)n2)cc1)C(C)C [Compound 1.681, N-isopropyl-4-methoxy-N-[[4-[5-(trifluoromethyl)-1,2,4-oxadiazol-3-yl]phenyl]methyl]-butanamide]
≥ 80%: pest or weed control at 200 ppm [1] | inhibition of growth at 20 ppm [2] | pest or weed control at 200 ppm (Phakopsora Pachyrhizi) | pest or weed control at 200 ppm [3]
